Reference: US12679878B2, “CRF2 receptor agonists and their use in therapy” (SANOFI, priority 2020, dated 2026)
Starred links: 1 amine or outer side, 2 acyl side, 3 side chain; linkers in the order of their positions; H or OH if unused. Non-standard residues stand in square brackets, D forms with d. Residues, ends and D or L forms follow the SMILES beside them. Groups on a side chain read outwards from the residue. *: point of attachment. C18 diacid = O=C(O)CCCCCCCCCCCCCCCCC(=O)*; γGlu = O=C(O)[C@H](CCC(=O)[*:2])N[*:1]; AEEA = NCCOCCOCC(=O)O; Aib = CC(C)(N)C(=O)O

Legend:
[1] = Physical stability, Thioflavin T fibrillation assay (Example 14); type: physicochemical; conditions: Buffer B: 100 mM acetate buffer, pH 4.5, 2.7 mg/ml m-cresol; 3 mg/ml; 37° C. shaking
Outline: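 Fibrillation tendency was judged from lag time and rise in Thioflavin T fluorescence, measured every 20 minutes over eight replicates per sample. Peptides at 3 mg/ml final were held at 37° C under cycles of 10 s shaking (960 rpm) and 50 s rest.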

[2] = Physical stability, dynamic light scattering assay (Example 15); type: physicochemical; conditions: for Apparent Rh [nm] 4 weeks / Scattering Intensity (I) [%] 4 weeks: 4 weeks at 40° C.
Outline: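 DLS at 837 nm, 150° angle, +25° C; Rh, scattering intensity and mass contribution measured at 0 weeks and after 4 weeks at 40° C. Rh and D compared at 1, 5 and 10 mg/ml as kD surrogate; separate measurements at 300 μM, purity-corrected.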

[3] = Buffer A (100 mM acetate, pH 4.5)
[4] = Buffer D (20 mM phosphate, pH 7.4)
[5] = Buffer B (100 mM acetate, pH 4.5, 2.7 mg/ml m-cresol)
[6] = Buffer E (20 mM acetate, pH 4.5)

| Increase in FI (fluorescence intensity) [1] | Lag time [1] [h] | Apparent Rh [nm] 0 weeks [2, 3] [nm] | Scattering Intensity (I) [%] 0 weeks [2, 3] [%] | Apparent Rh [nm] 4 weeks [2, 3] [nm] | Scattering Intensity (I) [%] 4 weeks [2, 3] [%] | Apparent Rh [nm] 0 weeks [2, 4] [nm] | Scattering Intensity (I) [%] 0 weeks [2, 4] [%] | Apparent Rh [nm] 4 weeks [2, 4] [nm] | Scattering Intensity (I) [%] 4 weeks [2, 4] [%] | Apparent Rh [nm] 0 weeks [2, 5] [nm] | Scattering Intensity (I) [%] 0 weeks [2, 5] [%] | Apparent Rh [nm] 4 weeks [2, 5] [nm] | Scattering Intensity (I) [%] 4 weeks [2, 5] [%] | Apparent Rh [nm] 0 weeks [2, 6] [nm] | Scattering Intensity (I) [%] 0 weeks [2, 6] [%] | Apparent Rh [nm] 4 weeks [2, 6] [nm] | Scattering Intensity (I) [%] 4 weeks [2, 6] [%] | SMILES |
| --- | --- | --- | --- | --- | --- | --- | --- | --- | --- | --- | --- | --- | --- | --- | --- | --- | --- | --- |
| No | >45 | 3.32 ± 0.18 | 100 ± 1 | 3.42 ± 0.04 | 99 ± 1 |  |  |  |  |  |  |  |  |  |  |  |  | CC[C@H](C)[C@H](N)C(=O)N[C@H](C(=O)N[C@@H](CC(C)C)C(=O)N[C@@H](CO)C(=O)N[C@@H](CC(C)C)C(=O)N[C@@H](CC(=O)O)C(=O)N[C@H](C(=O)N1CCC[C@H]1C(=O)N[C@H](C(=O)N[C@@H](CCCCN)C(=O)N[C@@H](CC(C)C)C(=O)N[C@@H](CCCCNC(=O)COCCOCCNC(=O)COCCOCCNC(=O)CC[C@H](NC(=O)CCCCCCCCCCCCCCCCC(=O)O)C(=O)O)C(=O)N[C@@H](CCCCN)C(=O)N[C@H](C(=O)N[C@@H](CC(C)C)C(=O)N[C@@H](CC(C)C)C(=O)N[C@@H](CCCCN)C(=O)N[C@@H](CCC(N)=O)C(=O)N[C@@H](CCC(=O)O)C(=O)N[C@@H](CCCNC(=N)N)C(=O)N[C@@H](CCC(N)=O)C(=O)N[C@@H](CCCCN)C(=O)N[C@@H](CCCCN)C(=O)NC(C)(C)C(=O)N[C@@H](CCCNC(=N)N)C(=O)N[C@@H](CCC(=O)O)C(=O)N[C@@H](CCC(N)=O)C(=O)N[C@@H](C)C(=O)N[C@@H](CCC(=O)O)C(=O)N[C@@H](CCCCN)C(=O)N[C@@H](CC(N)=O)C(=O)N[C@@H](CCCCN)C(=O)N[C@@H](CCC(N)=O)C(=O)N[C@H](C(=O)N[C@@H](CC(C)C)C(=O)N[C@@H](C)C(=O)N[C@@H](CCC(N)=O)C(=O)N[C@H](C(N)=O)C(C)C)[C@@H](C)CC)[C@@H](C)CC)[C@@H](C)CC)C(C)C)C(C)C [compound 99] (H-IVLSLDVPIKLK([AEEA-AEEA-γGlu-C18 diacid])KILLKQERQKK[Aib]REQAEKNKQILAQV-NH2) |
|  |  | 2.75 ± 0.14 | 98 ± 3 | 2.70 ± 0.28 | 97 ± 2 | 2.40 ± 0.15 | 98 ± 3 | 2.48 ± 0.07 | 98 ± 2 |  |  |  |  |  |  |  |  | CC[C@H](C)[C@H](N)C(=O)N[C@H](C(=O)N[C@@H](CC(C)C)C(=O)N[C@@H](CO)C(=O)N[C@@H](CC(C)C)C(=O)N[C@@H](CC(=O)O)C(=O)N[C@@H](C(=O)N1CCC[C@H]1C(=O)N[C@H](C(=O)N[C@@H](CCCCN)C(=O)N[C@@H](CC(C)C)C(=O)N[C@@H](CCCCNC(=O)COCCOCCNC(=O)COCCOCCNC(=O)CC[C@H](NC(=O)CCCCCCCCCCCCCCCCC(=O)O)C(=O)O)C(=O)N[C@@H](CCC(N)=O)C(=O)N[C@H](C(=O)N[C@@H](CC(C)C)C(=O)N[C@@H](CC(C)C)C(=O)N[C@@H](CCCCN)C(=O)N[C@@H](CCC(N)=O)C(=O)N[C@@H](CCC(=O)O)C(=O)N[C@@H](CCCNC(=N)N)C(=O)N[C@@H](CCC(N)=O)C(=O)N[C@@H](CCCCN)C(=O)N[C@@H](CCCCN)C(=O)NC(C)(C)C(=O)N[C@@H](CCCNC(=N)N)C(=O)N[C@@H](CCC(N)=O)C(=O)N[C@@H](CCCCN)C(=O)N[C@@H](C)C(=O)N[C@@H](CCC(=O)O)C(=O)N[C@@H](CCCCN)C(=O)N[C@@H](CC(N)=O)C(=O)N[C@@H](CCCCN)C(=O)N[C@@H](CCC(N)=O)C(=O)N[C@H](C(=O)N[C@@H](CC(C)C)C(=O)N[C@@H](C)C(=O)N[C@@H](CCC(N)=O)C(=O)N[C@H](C(N)=O)C(C)C)[C@@H](C)CC)[C@@H](C)CC)[C@@H](C)CC)C(C)C)C(C)C [compound 136] (H-IVLSLD[dV]PIKLK([AEEA-AEEA-γGlu-C18 diacid])QILLKQERQKK[Aib]RQKAEKNKQILAQV-NH2; N-terminus assumed) |
|  |  | 3.31 ± 0.15 | 94 ± 1 | 3.34 ± 0.25 | 100 ± 0 | 2.66 ± 0.13 | 84 ± 6 | 2.65 ± 0.11 | 88 ± 9 | 3.50 ± 0.03 | 100 ± 0 | 3.60 ± 0.10 | 100 ± 0 | 2.38 ± 0.13 | 98 ± 2 | 2.59 ± 0.07 | 100 ± 0 | CC[C@H](C)[C@H](N)C(=O)N[C@H](C(=O)N[C@@H](CC(C)C)C(=O)N[C@@H](CO)C(=O)N[C@@H](CC(C)C)C(=O)N[C@@H](CC(=O)O)C(=O)N[C@@H](C(=O)N1CCC[C@H]1C(=O)N[C@H](C(=O)N[C@@H](CCCCN)C(=O)N[C@@H](CC(C)C)C(=O)N[C@@H](CCCCNC(=O)COCCOCCNC(=O)COCCOCCNC(=O)CC[C@H](NC(=O)CCCCCCCCCCCCCCCCC(=O)O)C(=O)O)C(=O)N[C@@H](CCC(N)=O)C(=O)N[C@H](C(=O)N[C@@H](CC(C)C)C(=O)N[C@@H](CC(C)C)C(=O)N[C@@H](CCCCN)C(=O)N[C@@H](CCC(N)=O)C(=O)N[C@@H](CCC(=O)O)C(=O)N[C@@H](CCCNC(=N)N)C(=O)N[C@@H](CCC(N)=O)C(=O)N[C@@H](CCCCN)C(=O)N[C@@H](CCCCN)C(=O)N[C@@H](CCC(N)=O)C(=O)N[C@@H](CCCNC(=N)N)C(=O)N[C@@H](CCC(=O)O)C(=O)N[C@@H](CCC(N)=O)C(=O)N[C@@H](C)C(=O)N[C@@H](CCC(=O)O)C(=O)N[C@@H](CCCCN)C(=O)N[C@@H](CC(N)=O)C(=O)N[C@@H](CCCCN)C(=O)N[C@@H](CCC(N)=O)C(=O)N[C@H](C(=O)N[C@@H](CC(C)C)C(=O)N[C@@H](CCC(=O)O)C(=O)N[C@@H](CCC(N)=O)C(=O)N[C@H](C(N)=O)C(C)C)[C@@H](C)CC)[C@@H](C)CC)[C@@H](C)CC)C(C)C)C(C)C [compound 137] (H-IVLSLD[dV]PIKLK([AEEA-AEEA-γGlu-C18 diacid])QILLKQERQKKQREQAEKNKQILEQV-NH2; N-terminus assumed) |
|  |  | 3.04 ± 0.08 | 98 ± 1 | 3.13 ± 0.22 | 95 ± 4 | 2.38 ± 0.23 | 96 ± 3 | 2.56 ± 0.29 | 100 ± 0 | 2.94 ± 0.32 | 96 ± 5 | 3.11 ± 0.14 | 93 ± 3 |  |  |  |  | CC[C@H](C)[C@H](N)C(=O)N[C@H](C(=O)N[C@@H](CC(C)C)C(=O)N[C@@H](CO)C(=O)N[C@@H](CC(C)C)C(=O)N[C@@H](CC(=O)O)C(=O)N[C@@H](C(=O)N1CCC[C@H]1C(=O)N[C@H](C(=O)N[C@@H](CCCCN)C(=O)N[C@@H](CC(C)C)C(=O)N[C@@H](CCCCNC(=O)COCCOCCNC(=O)COCCOCCNC(=O)CC[C@H](NC(=O)CCCCCCCCCCCCCCCCC(=O)O)C(=O)O)C(=O)N[C@@H](CCC(N)=O)C(=O)N[C@H](C(=O)N[C@@H](CC(C)C)C(=O)N[C@@H](CC(C)C)C(=O)N[C@@H](CCCCN)C(=O)N[C@@H](CCC(N)=O)C(=O)N[C@@H](CCC(=O)O)C(=O)N[C@@H](CCCNC(=N)N)C(=O)N[C@@H](CCC(N)=O)C(=O)N[C@@H](CCCCN)C(=O)N[C@@H](CCCCN)C(=O)N[C@@H](CCC(N)=O)C(=O)N[C@@H](CCCNC(=N)N)C(=O)N[C@@H](CCC(N)=O)C(=O)N[C@@H](CCC(N)=O)C(=O)N[C@@H](C)C(=O)N[C@@H](CCC(=O)O)C(=O)N[C@@H](CCCCN)C(=O)N[C@@H](CC(N)=O)C(=O)N[C@@H](CCCCN)C(=O)N[C@@H](CCC(N)=O)C(=O)N[C@H](C(=O)N[C@@H](CC(C)C)C(=O)N[C@@H](C)C(=O)N[C@@H](CCC(N)=O)C(=O)N[C@H](C(N)=O)C(C)C)[C@@H](C)CC)[C@@H](C)CC)[C@@H](C)CC)C(C)C)C(C)C [compound 139] (H-IVLSLD[dV]PIKLK([AEEA-AEEA-γGlu-C18 diacid])QILLKQERQKKQRQQAEKNKQILAQV-NH2; N-terminus assumed) |
